For orientation: Kd means the constant that tells how readily two partners part at equilibrium. Low values mean tighter binding, high ones weaker binding.

For 1 compound, Kd results are on record in PMC11093745 (Nature Methods, 2024).

This test has as its target T1, cAMPinG1 (Mus musculus, UniProt Q9DBC7, DEL187-189).
T1 construct: gene Prkar1a; PKA-R1α residues 108-186 and 190-381, N-terminus removed, cpGFP (from GCaMP6f) inserted in the β4–β5 loop replacing 187-189, engineered linkers/cpGFP, N-terminal RSET; expressed in HEK293T, lysate
The experiment in a line: sensor fluorescence titration in HEK293T lysate, Hill fit. Type of test: binding.

T1 sequence (Q9DBC7 108-186, stated change not applied): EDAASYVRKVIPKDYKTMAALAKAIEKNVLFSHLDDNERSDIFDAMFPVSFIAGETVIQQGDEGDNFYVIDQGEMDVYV
T1 sequence (Q9DBC7 190-381, stated change not applied): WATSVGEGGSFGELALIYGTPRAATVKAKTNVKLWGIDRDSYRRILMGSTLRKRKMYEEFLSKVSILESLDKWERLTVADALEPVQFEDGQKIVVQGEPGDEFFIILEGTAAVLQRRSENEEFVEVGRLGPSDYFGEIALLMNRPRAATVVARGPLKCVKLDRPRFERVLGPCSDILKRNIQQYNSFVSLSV

For `Nc1nc2c(ncn2[C@@H]2O[C@@H]3COP(=O)(O)O[C@H]3[C@H]2O)c(=O)[nH]1` [cGMP], the Kd turned out to be 12.2 µM.
